Data from patent publication US4959182A, “Method and compositions providing enhanced chemiluminescence from 1,2-dioxetanes” (priority 1989, dated 1990).
Where a name gives a salt, the structure may show the parent alone. Read-outs that look alike come from different tables or passages of the source.

Key:
[1] = type: physicochemical; settings: for half-life: in xylene, read-out: t1/2 at 25° C. (converted); for half-life / k(sec^-1) at 25° C.: 25° C.
Procedure: Rates for thermal decomposition of the stable dioxetanes were monitored by the decay of chemiluminescence of aerated solutions. A cylindrical Pyrex vial equipped with magnetic stir bar was filled with 3-4 mL of the reaction solvent, sealed with a Teflon-lined screw cap and placed in the thermostatted sample block of the chemiluminescence-measuring luminometer. Temperature control was provided by an external circulating water bath. Appropriate values for the instrument gain and optical slit size were selected. […]. The vial was sealed with a Teflon-lined screw cap to prevent evaporation when high temperatures were used. Measurement of the signal was begun by opening the shutter. The chemiluminescent decay was generally recorded for at least three half-lives. Calculation of the first-order rate constant (k) from the In (Intensity) vs. time data was performed by a computer program utilizing a standard least-squares treatment. The correlation coefficient (r) was typically at least 0.999 and k varied less than 5% between replicate samples.
Activation parameters for decomposition of the dioxetanes were calculated from plots of In k vs. 1/T (Arrhenius eq.) or In k/t vs. 1/T (Eyring eq.) by a standard least-squares linear regression analysis.
Activation Energies for Thermal Decomposition of Dioxetanes

[2] = Base-triggered chemiluminescence of dioxetanes 2a/2b in DMSO, water, CTAB micelles and micelles with fluorescent co-surfactant
Text: The chemiluminescence quantum yield (.PHI.CL) for the decomposition of dioxetanes is defined as the ratio of einsteins of chemiluminescence emitted to moles of dioxetane decomposed. Sufficient energy is released during the reaction from the reaction enthalpy (ΔHR) plus the Arrhenius activation energy (Ea) to populate the singlet excited state of one of the carbonyl cleavage products. Therefore, the maximum quantum yield is 1.0. Another parameter of interest is the chemiexcitation quantum yield (.PHI.CE) which is defined as the ratio of excited states formed to dioxetane decomposed. The chemiexcitation quantum yield is related to the chemiluminescence quantum yield via the fluorescence quantum yield of the dioxetane cleavage (.PHI.F) through the equation: .phi.CL =.phi.CE X .phi.F.
(§1) The same procedure as those employed in the measurement of the decay kinetics was used for the determination of chemiluminescence quantum yields with the following modifications. An accurately measured aliquot of a dioxetane stock solution of known concentration was added to 3 mL of the pre-thermostatted organic solvent or aqueous buffer. The reaction was then triggered by adding the appropriate chemical reagent or enzyme. The total light intensity was integrated by a photon-counting luminometer using an RCA A-31034A gallium-arsenide PMT cooled to -78° C.
Spectra of the chemiluminescence from chemically or enzymatcally triggered dioxetanes were obtained by conducting the reaction in a 1-cm square quartz cuvette in the sample compartment of a Spex Fluorolog spectrofluorometer at ambient temperature. Correction for the decay of the chemiluminescence intensity during the wavelength scan was made by accumulating the spectrum in a ratio mode so that the observed spectrum was divided by the signal from an auxiliary detector (EMI 9781B) which measures the total signal as a function of time. The monochromator bandpass was typically 18 nm. For weakly emitting samples, several identical scans were performed and added together to improve the signal-to-noise ratio.
1. Triggering the Chemiluminescence of Hydroxy-Substituted Dioxetane 2a with Base.
2. […] Cationic surfactants such as cetyltrimethylammonium bromide (CTAB) can be used to increase rates for chemical triggering of chemiluminescence from appropriately substituted dioxetanes in aqueous solution. […] The dioxetane is solubilized in the micelles formed by the surfactant and NaOH is added to initiate the chemiluminescence. […] Typically, the experiments were carried out with [2b]=9.1×10^-5 M, [CTAB]=2×10^-3 M, and [OH^- ]=9.1×10^-5 M at 37° C.
Similar experiments were conducted with the benzothiazamide surfactant 4. […] Enzymatic Triggering of Phosphate-Substituted Dioxetane 2c.

[3] = test system: Alkaline Phosphatase from Bovine Intestinal Mucosa; assay: Triggering the chemiluminescence of 2c with alkaline phosphatase from bovine intestinal mucosa; type: biochemical
Procedure: as §1
2. Triggering the Chemiluminescence of 2c with Alkaline Phosphatase from Bovine Intestinal Mucosa. Alkaline phosphatase from bovine intestinal mucosa was obtained from Sigma Chemical Co. as a suspension of 5.1 mg of protein per mL of 3.2 M (NH4)2 SO4 solution. […] 3. Triggering the Chemiluminescence of 2c with Alkaline Phosphatase: Enhanced Chemiluminescence Efficiency via Intermolecular Energy Transfer in Aqueous Micelles. […] Alkaline phosphatase experiments with dioxetane 2c were conducted at 37° C. with 3 mL of a solution containing: 2c (4.3×10^-5 M), 221 buffer (0.75 M, pH 9.1), Mg(OAc)2 (8.0×10^-4 M), CTAB (1.13×10^-3 M), and fluorescein surfactant 3 (5.6×10^-5 M).
To test the sensitivity of this chemiluminescence method for evaluating concentrations of alkaline phosphatase in solution, a series of experiments were carried out using enzyme stock solutions prepared by dilutions of the commercial sample obtained from Sigma. A conservative estimate of the concentration of phosphatase in the sample was made by assuming that the 5.1 mg of protein per mL in the sample was 100% pure alkaline phosphatase. A molecular weight of 140,000 as also used in calculating molar amounts of enzyme. The conditions were the same as described above with 2c, CTAB, and fluorescer 3 except that the final quantities of enzyme in the 3 mL solutions were:
Enzymatic triggering experiments such as those described above were also carried out in Immumlon™ microtitre wells from Dynatech, Inc. made of transparent polystyrene. The wells were used individually and placed in a light-tight holder which could be thermostatted. The chemiluminescence was detected at the bottom of the well using a fiber optic connected to the photon-counting luminometer described previously. This experimental set-up allowed much smaller reaction volumes to be used. For example, a series of experiments using dioxetane 2c, CTAB, and 3 in 200 μL of 221 buffer with amounts of alkaline phosphatase ranging from 5×10^-15 to 2×10^-18 moles (or 2 attomoles) were carried out. […] A more realistic assumption for the purity of the enzyme sample might be 10%.

S-antigen = assay: Chemiluminescent ELISA for S-antigen with dioxetane 2c and alkaline phosphatase conjugate
Text: 4. Chemiluminescent Enzyme-Linked Assays. Enzymatic triggering of appropriately substituted dioxetanes provides an ultrasensitive detection method for enzyme-linked biological assays. For example, phosphate-substituted dioxetane 2c can be used with enzyme linked immunoassays and DNA probes that utilize alkaline phosphatase as the marker for detection. Previous detection methods make use of substrates which develop a color or become fluorescent upon reaction with this enzyme. The sensitivity of the chemiluminescent technique with dioxetane 2c is illustrated by an enzyme-linked immunosorbant assay (ELISA) for the retinal protein, S-antigen. Using procedures of L. A. Donoso (L. A. Donoso, C. F. Merryman, K. E. Edelberg, R. Naids, and C. Kalsow, Investigative Ophthalmology & Visual Science, 26, 561 (1985)), a series of 7 Immulon™ wells were coated with varying amounts of S-antigen (112, 56, 28, 14, 7, 3, 1.3 ng), reacted with a monoclonal antibody (MAbA9-C6) developed in mouse, and finally reacted with anti-mouse IgG coupled to alkaline phosphatase. A chemiluminescence assay of each well was then conducted individually by adding 100 μL of 221 buffer (0.75 M, pH 9.1) containing Mg(OAc)2 (8.0×10^-4 M), CTAB (1.13×10^-3 M), and fluorescein surfactant 3 (5.6×10^-5 M). […] The reagent background luminescence is very low and constant at 15 - 20 counts/sec (FIG. 13). […] Following the experiments with the luminometer, the wells containing the same solution were subsequently used for a photographic detection experiment (FIG. 15). The 7 wells were placed in a holder and incubated for 30 minutes at 37° C. and then photographed at that temperature with ASA 3000 Polaroid™Type 57 film for 15 min in a light-tight incubator. […] The reproducibility of the photographic assay is illustrated in FIG. 16. Four wells coated with 50 ng of antigen were treated with buffer and dioxetane as above, incubated for 1 hour at 45° C., and then photographed with the film for 30 sec at that temperature.

[4] = test system: Alkaline Phosphatase from Human Blood Serum; assay: Triggering the chemiluminescence of 2c with alkaline phosphatase from human blood serum; type: biochemical
Procedure: 1. Triggering the Chemiluminescence of 2c with Alkaline Phosphatase from Human Blood Serum. A stock solution of dioxetane 2c was prepared in dioxane/water (1:1 v/v) by photooxygenation of 1c. A sample of fresh blood was drawn from a healthy donor and the red blood cells removed by centrifugation to provide serum for the experiments. Treatment of 3 mL of a 10^-5 M solution of 2c in 0.75 M 2-amino-2-methyl-1-propanol (221) buffer (pH 10.3) at 37° C. with 100 μL of serum led to the typical intensity vs. time profile shown in FIG. 3 where the serum is injected at time zero. Under these conditions the light intensity reaches a constant level of approximately 2.3×10^4 counts/sec. The background luminescence signal from non-enzymatic hydrolysis of 2c is less than 0.05% of the enzyme-generated value. […] The light intensity at any other time point can also be conveniently used to provide a direct measure of the enzyme concentration (FIG. 5). [drawing 31]

[5] = aryloxide form, 25° C.
[6] = cited from earlier work
[7] = thermal decomposition in xylene
[8] = base, CTAB 1.5×10^-3 M with fluorescein surfactant 3 (9×10^-5 M), 37° C.
[9] = benzothiazamide surfactant 4 as co-surfactant, similar experiments with 2b/CTAB/base

What does the source list for `COC1(c2cccc(OC(C)=O)c2)OOC12C1CC3CC(C1)CC2C3` (centres unmarked) [2b, 4-(3-Acetoxyphenyl)-4-methoxyspiro[1,2-dioxetane-3,2'-adamantane]]?
half-life [1]: 4750 days; Ea [1, 7]: 30.4; Log A [1, 7]: 13.6; k(sec^-1) at 25° C. [1, 7]: 1.73e-09 s⁻¹; increase in the chemiluminescence quantum yield ([2]; CTAB above cmc vs water, 37° C.): 19 fold; chemiluminescence quantum yield (.PHI.CL) ([2]; base in DMSO): 0.25; light yield (chemiluminescence quantum yield) ([2]; base in water): 8.9×10^-6; chemiluminescence efficiency [2, 8]: 1.4%; chemiluminescence quantum yield (.PHI.CL) [2, 8]: 0.014; chemiluminescence quantum yield (.PHI.Cl) ([2]; base, CTAB above critical micelle concentration, 37° C.): 1.7×10^-4; increase over the luminescence in the absence of CTAB and 3 ([2]; base, CTAB with fluorescein surfactant 3, 37° C.): 500 fold

Which period of chemiluminescence ([3]; 12 pg/mL protein, CTAB and 3, 37° C.) does the source give for `COC1(c2cccc(OP(=O)(O)O)c2)OOC12C1CC3CC(C1)CC2C3` (centres unmarked) [2c, 4-Methoxy-4-(3-phosphatephenyl)spiro[1,2-dioxetane-3,2'-adamantane], disodium salt] here?
Its period of chemiluminescence is 45 min.

What about the “detection of alkaline phosphatase” value ([3]; 200 μL 221 buffer, CTAB and 3, enzyme purity of 10% assumed) of the same compound?
The value was “less than 0.2 attomoles”.

And the chemiluminescence quantum yield ([3]; 221 buffer pH 9.1, 37° C., no CTAB)?
Its chemiluminescence quantum yield is 3.1×10^-5.

What about the “period over which light intensity increases” value ([3]; CTAB and fluorescer, depending on enzyme concentration) of the same compound?
Its value is 30 to 60 min.

And the “background signal from non-enzymatic hydrolysis” value ([3]; buffer/co-micelle environment)?
The value was “only a few”.

And the “chemiluminescence quantum yield (.PHI.Cl)” value ([3]; with CTAB (1.13×10^-3 M))?
Its value is 2.1×10^-4.

And the “increase compared to the enzymatic reaction in the absence of CTAB and 3” value ([3]; with CTAB and fluorescein surfactant 3)?
The value was 500 fold.

And the “chemiluminescence quantum yield (.PHI.Cl)” value ([3]; with CTAB and fluorescein surfactant 3 (5.6×10^-5 M), pH 9.1, 37° C.)?
Its value is 0.015.

What about the chemiluminescence efficiency ([3]; with CTAB and fluorescein surfactant 3, pH 9.1, 37° C.) of the same compound?
The chemiluminescence efficiency was 1.5%.

What about the “integrated light intensity vs amount of antigen” value (S-antigen; 1.3 to 112 ng S-antigen) of the same compound?
The value was “correlates with the amount of antigen coated on the well”.

What about the reagent background luminescence (S-antigen; 2c 1.36×10^-4 M, CTAB and 3, pH 9.1, 37° C.) of the same compound?
Its reagent background luminescence is 15 - 20 counts/sec.

What about the “photographic detection, control well with buffer and dioxetane only” value (S-antigen; ASA 3000 Polaroid film) of the same compound?
Its value is “not visible”.

What about the “light intensity (constant level)” value ([4]; 10^-5 M 2c, 100 μL serum, 221 buffer pH 10.3, 37° C.) of the same compound?
The value was “approximately 2.3×10^4 counts/sec”.

What about the “light intensity at the plateau vs enzyme concentration” value ([4]; 100 to 1 μL of serum) of the same compound?
Its value is “directly proportional to the enzyme concentration”.

And the “background luminescence signal from non-enzymatic hydrolysis, of enzyme-generated value” ([4]; 221 buffer pH 10.3, 37° C.)?
The value was “less than 0.05%”.

What about the Ea ([1]; Arrhenius plot, o-xylene, 80° to 120° C.) of the same compound?
Its Ea is 32.5 kcal/mol.

What about the half-life [1] of the same compound?
The half-life was 6940 days.

What about the Ea [1, 7] of the same compound?
The Ea was 32.5.

What about the “Log A” value [1, 7] of the same compound?
Its value is 14.9.

What about the “k(sec^-1) at 25° C.” value [1, 7] of the same compound?
Its value is 1.19e-09 s⁻¹.

With `COC1(c2cccc(O)c2)OOC12C1CC3CC(C1)CC2C3` (centres unmarked) [aryloxide-substituted dioxetane] as the compound, how does the half-life [5] read?
Its half-life is 5 s.

For `CCCCCCCCCCCCCCCCNC(=O)c1nc2ccc(O)cc2s1` [compound 4, 1-Hexadecyl-6-hydroxy-2-benzothiazamide], which chemiluminescence efficiency [2, 9] is on record?
Its chemiluminescence efficiency is 0.3%.

And the λmax [2, 9]?
Its λmax is 506 nm.

With `Oc1ccc(C23OCCOC2(c2ccccc2)OO3)cc1` (centres unmarked) [deprotonated dioxetane (X=O^-)] as the compound, how does the “decomposition rate relative to protonated form (X=OH)” value ([6]; 25° C.) read?
The value was 5.7×10^6 times.

Which “half-life for decomposition at room temperature” value ([6]; 25° C.) does the source give for `Oc1ccc(C23OCCOC2(c2ccccc2)OO3)cc1` (centres unmarked) [hydroxy-substituted dioxetane (X=OH)] here?
Its value is 57 h.

What about the luminescence with base ([6]; base at -30° C.) of the same compound?
The luminescence with base was “a flash of blue light”.

And the luminescence upon heating ([6]; elevated temperatures)?
The luminescence upon heating was “very low levels of luminescence”.
